Data taken from PubChem BioAssay (NCI).
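The compound was tested at five concentrations on cells cultured in 96-well plates, with a 48-hour exposure period. Abbreviation: GI50, concentration required for 50% inhibition of growth. The concentration for full growth arrest is given as TGI.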

How the values were obtained:
Assay in all cases: NCI-60 cell line screen, 48 h
[1] = test system: SK-OV-3 ovarian
[2] = test system: HL-60(TB) leukemia
[3] = test system: OVCAR-4 ovarian
[4] = test system: HS 578T breast
[5] = test system: HT29 colon
[6] = test system: UO-31 renal
[7] = test system: ACHN renal
[8] = test system: RPMI-8226 leukemia
[9] = test system: HCC-2998 colon
[10] = test system: CCRF-CEM leukemia
[11] = test system: EKVX NSCLC
[12] = test system: BT-549 breast
[13] = test system: SNB-75 CNS
[14] = test system: OVCAR-5 ovarian
[15] = test system: LOX IMVI melanoma
[16] = test system: SNB-19 CNS
[17] = test system: PC-3 prostate
[18] = test system: K-562 leukemia
[19] = test system: U251 CNS
[20] = test system: NCI-H226 lung
[21] = test system: MDA-MB-435
[22] = test system: COLO 205 colon
[23] = test system: UACC-62 melanoma
[24] = test system: SK-MEL-2 melanoma
[25] = test system: IGROV1 ovarian
[26] = test system: UACC-257 melanoma
[27] = test system: SF-295 CNS
[28] = test system: TK-10 renal
[29] = test system: MOLT-4 leukemia
[30] = test system: SN12C renal
[31] = test system: OVCAR-3 ovarian
[32] = test system: SF-268 CNS
[33] = test system: RXF 393 renal
[34] = test system: M14 melanoma
[35] = test system: SK-MEL-5 melanoma
[36] = test system: A498 renal
[37] = test system: NCI-H522 lung
[38] = test system: SR leukemia
[39] = test system: SK-MEL-28 melanoma
[40] = test system: SW-620 colon
[41] = test system: HCT-116 colon
[42] = test system: NCI-H23 lung
[43] = test system: HOP-92 NSCLC
[44] = test system: HCT-15 colon
[45] = test system: A549 NSCLC
[46] = test system: MCF7 breast
[47] = test system: NCI-H460 lung
[48] = test system: OVCAR-8 ovarian
[49] = test system: MALME-3M melanoma
[50] = test system: KM12 colon
[51] = test system: HOP-62 NSCLC
[52] = test system: SF-539 CNS
[53] = test system: MDA-MB-231 breast
[54] = test system: T-47D breast
[55] = test system: NCI/ADR-RES ovarian
[56] = test system: 786-0 renal

Question: How did the GI50 [1] turn out when `CCC(C)[C@H]1OC(=O)[C@H](C(C)C)N(C)C(=O)[C@@H](C(C)C)OC(=O)[C@H](C(C)C)N(C)C(=O)[C@@H](C(C)CC)OC(=O)[C@H](C(C)C)N(C)C1=O` (some centres not stated) was run?
Answer: 379 nM

Question: And the TGI [1]?
Answer: 1010 nM

Question: And the GI50 [2]?
Answer: 383 nM

Question: What about the TGI [2] of the same molecule?
Answer: 851 nM

Question: And the GI50 [3]?
Answer: 632 nM

Question: What about the TGI [3] of the same molecule?
Answer: > 16700 nM

Question: And the GI50 [4]?
Answer: 745 nM

Question: And the TGI [4]?
Answer: 6960 nM

Question: And the GI50 [5]?
Answer: 567 nM

Question: What about the TGI [5] of the same molecule?
Answer: 2160 nM

Question: And the GI50 [6]?
Answer: 422 nM

Question: What about the TGI [6] of the same molecule?
Answer: 1710 nM

Question: And the GI50 [7]?
Answer: 517 nM

Question: And the TGI [7]?
Answer: 2960 nM

Question: What about the GI50 [8] of the same molecule?
Answer: 413 nM

Question: What about the TGI [8] of the same molecule?
Answer: 1020 nM

Question: What about the GI50 [9] of the same molecule?
Answer: 846 nM

Question: What about the TGI [9] of the same molecule?
Answer: 8060 nM

Question: What about the GI50 [10] of the same molecule?
Answer: 600 nM

Question: What about the TGI [10] of the same molecule?
Answer: 3040 nM

Question: What about the GI50 [11] of the same molecule?
Answer: 554 nM

Question: And the TGI [11]?
Answer: > 16700 nM

Question: And the GI50 [12]?
Answer: 501 nM

Question: What about the TGI [12] of the same molecule?
Answer: 1750 nM

Question: And the GI50 [13]?
Answer: 507 nM

Question: And the TGI [13]?
Answer: 2820 nM

Question: And the GI50 [14]?
Answer: 537 nM

Question: What about the TGI [14] of the same molecule?
Answer: 6120 nM

Question: And the GI50 [15]?
Answer: 562 nM

Question: And the TGI [15]?
Answer: 2140 nM

Question: What about the GI50 [16] of the same molecule?
Answer: 616 nM

Question: And the TGI [16]?
Answer: 3890 nM

Question: What about the GI50 [17] of the same molecule?
Answer: 588 nM

Question: And the TGI [17]?
Answer: 9930 nM

Question: What about the GI50 [18] of the same molecule?
Answer: 687 nM

Question: What about the TGI [18] of the same molecule?
Answer: > 16700 nM

Question: And the GI50 [19]?
Answer: 560 nM

Question: What about the TGI [19] of the same molecule?
Answer: 2330 nM

Question: What about the GI50 [20] of the same molecule?
Answer: 647 nM

Question: And the TGI [20]?
Answer: 2730 nM

Question: What about the GI50 [21] of the same molecule?
Answer: 619 nM

Question: And the TGI [21]?
Answer: 7650 nM

Question: And the GI50 [22]?
Answer: 341 nM

Question: What about the TGI [22] of the same molecule?
Answer: 743 nM

Question: And the GI50 [23]?
Answer: 710 nM

Question: And the TGI [23]?
Answer: 2980 nM

Question: What about the GI50 [24] of the same molecule?
Answer: 533 nM

Question: And the TGI [24]?
Answer: 2190 nM

Question: And the GI50 [25]?
Answer: 886 nM

Question: And the TGI [25]?
Answer: > 16700 nM

Question: What about the GI50 [26] of the same molecule?
Answer: 427 nM

Question: And the TGI [26]?
Answer: 1560 nM

Question: And the GI50 [27]?
Answer: 453 nM

Question: What about the TGI [27] of the same molecule?
Answer: 1530 nM

Question: What about the GI50 [28] of the same molecule?
Answer: 543 nM

Question: And the TGI [28]?
Answer: 3970 nM

Question: What about the GI50 [29] of the same molecule?
Answer: 793 nM

Question: What about the TGI [29] of the same molecule?
Answer: 2850 nM

Question: And the GI50 [30]?
Answer: 544 nM

Question: What about the TGI [30] of the same molecule?
Answer: 2160 nM

Question: And the GI50 [31]?
Answer: 694 nM

Question: What about the TGI [31] of the same molecule?
Answer: > 16700 nM

Question: What about the GI50 [32] of the same molecule?
Answer: 726 nM

Question: What about the TGI [32] of the same molecule?
Answer: 4260 nM

Question: And the GI50 [33]?
Answer: 420 nM

Question: What about the TGI [33] of the same molecule?
Answer: 2570 nM

Question: What about the GI50 [34] of the same molecule?
Answer: 601 nM

Question: And the TGI [34]?
Answer: 2550 nM

Question: And the GI50 [35]?
Answer: 357 nM

Question: What about the TGI [35] of the same molecule?
Answer: 783 nM

Question: What about the GI50 [36] of the same molecule?
Answer: 390 nM

Question: And the TGI [36]?
Answer: 1170 nM

Question: What about the GI50 [37] of the same molecule?
Answer: 429 nM

Question: And the TGI [37]?
Answer: 1650 nM

Question: What about the GI50 [38] of the same molecule?
Answer: 685 nM

Question: And the TGI [38]?
Answer: 3620 nM

Question: What about the GI50 [39] of the same molecule?
Answer: 952 nM

Question: What about the TGI [39] of the same molecule?
Answer: 4450 nM

Question: What about the GI50 [40] of the same molecule?
Answer: 616 nM

Question: And the TGI [40]?
Answer: > 16700 nM

Question: What about the GI50 [41] of the same molecule?
Answer: 532 nM

Question: And the TGI [41]?
Answer: > 16700 nM

Question: What about the GI50 [42] of the same molecule?
Answer: 548 nM

Question: What about the TGI [42] of the same molecule?
Answer: > 16700 nM

Question: And the GI50 [43]?
Answer: 379 nM

Question: And the TGI [43]?
Answer: 1050 nM

Question: What about the GI50 [44] of the same molecule?
Answer: 536 nM

Question: What about the TGI [44] of the same molecule?
Answer: 3520 nM

Question: What about the GI50 [45] of the same molecule?
Answer: 514 nM

Question: And the TGI [45]?
Answer: > 16700 nM

Question: And the GI50 [46]?
Answer: 529 nM

Question: What about the TGI [46] of the same molecule?
Answer: > 16700 nM

Question: What about the GI50 [47] of the same molecule?
Answer: 570 nM

Question: What about the TGI [47] of the same molecule?
Answer: 3350 nM

Question: What about the GI50 [48] of the same molecule?
Answer: 610 nM

Question: And the TGI [48]?
Answer: > 16700 nM

Question: And the GI50 [49]?
Answer: 458 nM

Question: And the TGI [49]?
Answer: 1810 nM

Question: And the GI50 [50]?
Answer: 651 nM

Question: And the TGI [50]?
Answer: > 16700 nM

Question: What about the GI50 [51] of the same molecule?
Answer: 491 nM

Question: What about the TGI [51] of the same molecule?
Answer: 2420 nM

Question: And the GI50 [52]?
Answer: 638 nM

Question: And the TGI [52]?
Answer: 2710 nM

Question: What about the GI50 [53] of the same molecule?
Answer: 520 nM

Question: What about the TGI [53] of the same molecule?
Answer: 1630 nM

Question: And the GI50 [54]?
Answer: 472 nM

Question: What about the TGI [54] of the same molecule?
Answer: 1470 nM

Question: What about the GI50 [55] of the same molecule?
Answer: 510 nM

Question: What about the TGI [55] of the same molecule?
Answer: 5900 nM

Question: And the GI50 [56]?
Answer: 575 nM

Question: What about the TGI [56] of the same molecule?
Answer: 5390 nM
